Data as given in PMC7356587, “Efficacy, Stability, and Safety Evaluation of New Polyphenolic Xanthones Towards Identification of Bioactive Compounds to Fight Skin Photoaging” (Molecules, 2020).
Marks after values point to notes of the source that are not given here.

Key:
[1] = DPPH reduction assay; conditions: for IC50: DPPH reduction, 60 min incubation
Experimental: The reduction of the stable DPPH free radical was measured by monitoring the change in absorbance at 517 nm. These experiments were made in a 96-well microplate. […] In each experiment, the compounds were tested in the concentration range 0.7812 μM to 50 μM, in triplicate. For each sample concentration, a blank with ethanol 70%, instead of DPPH was made. Ascorbic acid was used as a positive control and tested in the same conditions. Blanks containing only ethanol 70% and control containing DPPH in ethanol 70% (190 μM) were used. The absorbance at 517 nm was measured in a microplate reader BioTek^TM Synergy HT (BioTeck Instruments, Vermont, USA) after 60 min of incubation in the dark with a temperature-controlled holder at 25 °C. The microplate was shaken before each reading.
The scavenging percentage of DPPH was calculated using the following equation:(1) %scavenging of DPPH=100×(1−Abssample+DPPH−Abssample blank/AbsDPPH−AbsEtOH)
The IC50 value for each sample and for the ascorbic acid was obtained by linear regression.

[2] = tested on: collagenase; assay: Collagenase inhibition assay; assay type: biochemical
Experimental: An adaptation of the method of Moore and Stein [40] with modifications by Mandl et al. was used to determine anticollagenase activity. To 2 mL test tubes was added: 25 μL of collagenase solution (0.8 U/mL), 25 μL TES buffer (50 mM) with 0.36 mM calcium chloride (pH 7.4) and 50 μL of test sample or the reference compound EDTA (with concentrations ranging between 9.4 and 150 μM). The tubes were incubated in a water bath at 37 °C for 20 min. Thereafter, 50 μL FALGPA (1 mM) solution was added to the tubes and incubated further for 60 min at 37 °C. To all tubes, 200 μL of a solution containing equal volumes of a 1.6 mg/mLTin chloride (II) solution in 200 mM citrate buffer (pH 5) and 50 mg/mL ninhydrin solution in DMSO was added. All tubes were placed in a water bath (100 °C) for 5 min and left to cool to room temperature before adding 200 μL of 50% isopropanol to each tube. Contents in the tubes were then transferred to respective wells in 96-well plates.

[3] = tested on: hyaluronidase
Experimental: The methods described by Ndlovu et al. and Zhou et al. were applied for the hyaluronidase inhibition assay. Into 2 mL test tubes was placed: 50 μL of calcium chloride (12.5 mM), 50 μL of test samples or sodium aurothiomalate diluted in 0.1 M acetate buffer; pH 3.5 (with concentrations ranging between 9.4 and 150 μM), and 25 μL hyaluronidase (0.5 mg/mL). The tubes were incubated in a water bath (37 °C; 20 min) after which 50 μL of the substrate hyaluronic acid (0.25 mg/mL in 0.1 M acetate buffer; pH 3.5) was added and the tubes incubated for further 40 min. Twenty-five microliters of KBO2 • 4 H2O (0.8 M) was added to all tubes which were placed in a water bath (100 °C) for 3 min, left to cool to room temperature, and 800 μL of DMAB (4 g DMAB in 40 mL acetic acid and 5 mL 10 N HCl) was added. The tubes were then incubated for 20 min and the contents transferred to respective wells in a 96-well plate. Absorbance was detected at 585 nm in a Bio-Rad Model 680 Microplate Reader (Bio-Rad Laboratories, Inc., Hercules, CA, USA). Percentage of hyaluronidase inhibition was calculated as:(3) % hyaluronidase inhibition =Abscontrol−Abssample/Abscontrol×100 where Abscontrol is the absorbance of buffer + hyaluronidase; Abssample is the absorbance of buffer + hyaluronidase + sample/standard.

[4] = Metal-chelating effect by UV/Vis, FeCl3; assay type: physicochemical; conditions: methanolic solution
Experimental: (§1) The ultraviolet/visible (UV/Vis) spectra were recorded in methanol using a path length of 1 cm, at room temperature on a Varian CARY100 spectrophotometer (Agilent Technologies, Santa Clara, California, United States) from a range of 200 nm to 500 nm (software CaryWin UV, v. 3.0). The metal-chelating effect was evaluated by described procedures with stock solutions (1.0 × 10^−4 M) in methanol. Iron (III) and copper (II) solutions were prepared in a concentration of 1.0 × 10^−3 M from FeCl3 and CuCl2 in deionized water.

[5] = Metal-chelating effect by UV/Vis, CuCl2; assay type: physicochemical; conditions: methanolic solution
Experimental: as §1

[6] = UV/Vis absorption spectra; assay type: physicochemical; conditions: UVB range 280–320 nm
Experimental: as §1

[7] = Stability in pH buffers; assay type: physicochemical; conditions: pH buffers 2-8, 21 days, room temperature, 200 µM
Experimental: All the solutions were prepared following Portuguese Pharmacopeia 9.0 specifications (F.P. (VIII) 2008). A solution at 10 mM in DMSO of each compound was prepared. One hundred microliters of antioxidant solution were diluted to 5 mL of the different buffered pH solutions, prepared in triplicate. Their absorbance measured by UV/Vis spectrophotometry in the wavelength range between 200 and 500 nm at time intervals of 0, 1, and 2 h and 1, 8, 15, and 21 d at room temperature. Each pH buffer solution was used as a compensation solution.

[8] = Solubility in ethanol 70%; assay type: physicochemical
[9] = tested on: HaCaT cells; assay: Phototoxicity evaluation, HaCaT NRU assay; assay type: cell-based, human
Experimental: The HaCaT cells were maintained at 37 °C in a humidified atmosphere of 95% air and 5% CO2 in the incubator in dulbecco’s modified eagle’s medium (DMEM) with 10% fetal bovine serum (FBS) and 1% antibiotics. Using an inverted microscope, cell confluence was observed and if the cells reached 70–80% confluence, subculture was done to prevent cell death. For this purpose, the culture medium was aspirated and the cells were washed with dulbecco’s phosphate buffered saline (DPBS), 2 mL of trypsin-EDTA were added and incubated for 5–8 min at 37 °C in a 5% CO2 atmosphere. After cell detaching, medium was added in order to block the trypsin action and cell suspension was centrifuged at 416 g for 5 min. The supernatant was discarded, the pellet suspended in culture medium, and cells were counted. For cell counting: 50 μL of cell suspension were added to 50 μL of Trypan Blue vital dye […], resuspended, placed in a Neubauer chamber (Hirschmann, Germany) and the viable cells were counted. For cell freezing, DMSO (5% v/v) was used as a cryopreservative to prevent the formation of crystals during the storage phase.
HaCaT cells were seeded onto 96-well tissue culture plates (Orange Scientific, Braine-l’Alleud, Belgium) at a 2 × 10^4 cells/well density and incubated at 37 °C in a 5% CO2 atmosphere for 24 h. […] In this last step, the absorbance was measured at 540 nm. […]

[10] = tested on: HaCaT cell; design: method as in doi:10.1016/j.arabjc.2017.01.006, PMID 31167479; conditions: cited from earlier work

Compound: Cc1cc(O)c(O)c2oc3ccccc3c(=O)c12 [Compound 2, 3,4-dihydroxy-1-methyl-9H-xanthen-9-one]
- IC50 [1]: 31.2 ± 4.8 µM
- Collagenase % Inhibition (150 µM) [2]: 26.83 ± 1.45 ^b %
- Hyaluronidase % Inhibition (150 μM) [3]: n.a. (Not active (0% inhibition))
- change of UV/Vis spectrum on sequential additions of FeCl3 [4]: bathochromic shifts were observed
- change of UV/Vis spectrum on sequential additions of CuCl2 [5]: no effect was observed
- capacity to absorb UV radiation [6]: high absorbance in the UVB range
- pH stability [7]: a degradation of the compound for the range of pH tested overtime is observed

Compound: O=C1O[C@H]([C@@H](O)CO)C(O)=C1O [Ascorbic Acid, Ascorbic acid, reference compound]
- IC50 [1]: 40 ± 0.8 µM

Compound: COc1cc(O)c2c(=O)c3ccccc3oc2c1O [Compound 4, 1,4-dihydroxy-3-methoxy-9H-xanthen-9-one]
- maximum reduction activity ([1]; DPPH, IC50 not determinable, probably due to solubility issues): lower than 50%
- solubility [8]: low solubility

Compound: Cc1cc(O)c(O)c2oc3cc(O)ccc3c(=O)c12 [Compound 3, 3,4,6-trihydroxy-1-methyl-9H-xanthen-9-one]
- IC50 [1]: 47.3 ± 0.4 µM
- Hyaluronidase % Inhibition (150 μM) [3]: n.a. (Not active (0% inhibition))
- change of UV/Vis spectrum on sequential additions of FeCl3 [4]: bathochromic shifts were observed
- change of UV/Vis spectrum on sequential additions of CuCl2 [5]: no effect was observed
- capacity to absorb UV radiation [6]: high absorbance in the UVB range

Compound: O=c1c2ccccc2oc2ccc(O)c(O)c12 [Compound 1, 1,2-dihydroxy-9H-xanthen-9-one]
- IC50 [1]: 28.4 ± 0.2 µM
- Collagenase % Inhibition (150 µM) [2]: 35.77 ± 1.82 ^a %
- Hyaluronidase % Inhibition (150 μM) [3]: n.a. (Not active (0% inhibition))
- change of UV/Vis spectrum on sequential additions of FeCl3 [4]: bathochromic shifts
- change of UV/Vis spectrum on sequential additions of CuCl2 [5]: bathochromic shifts
- capacity to absorb UV radiation [6]: high absorbance in the UVB range
- pH stability [7]: more stable in the pH range that is closest to the pH of the skin
- cytotoxicity to HaCaT cells ([9]; 12.5-200 µM, with and without UVA irradiation, NRU): not cytotoxic
- phototoxicity ([9]; up to 200 µM, HaCaT NRU assay): nonphototoxic
- decrease in HaCaT cell viability in the neutral red assay [10]: 83%
- cytotoxic effect ([10]; up to 50 µM, MTT, neutral red, Alamar Blue, Trypan Blue assays): did not promote a significant cytotoxic effect
